Here are results for five compounds from US20230131720A1, “[1,3]DIAZINO[5,4-d]PYRIMIDINES AS HER2 INHIBITORS” (Boehringer Ingelheim International GmbH, priority 2020, published 2023).

The target of the first assay is T1, HER2 YVMA (Homo sapiens, UniProt P04626, INS775YVMA).
T1 construct: expressed in transfected cells; host or cells: human HEK cells, retroviral transduction, doxycycline-inducible expression
T1 sequence (P04626 with tags, fused parts or gaps INS775YVMA): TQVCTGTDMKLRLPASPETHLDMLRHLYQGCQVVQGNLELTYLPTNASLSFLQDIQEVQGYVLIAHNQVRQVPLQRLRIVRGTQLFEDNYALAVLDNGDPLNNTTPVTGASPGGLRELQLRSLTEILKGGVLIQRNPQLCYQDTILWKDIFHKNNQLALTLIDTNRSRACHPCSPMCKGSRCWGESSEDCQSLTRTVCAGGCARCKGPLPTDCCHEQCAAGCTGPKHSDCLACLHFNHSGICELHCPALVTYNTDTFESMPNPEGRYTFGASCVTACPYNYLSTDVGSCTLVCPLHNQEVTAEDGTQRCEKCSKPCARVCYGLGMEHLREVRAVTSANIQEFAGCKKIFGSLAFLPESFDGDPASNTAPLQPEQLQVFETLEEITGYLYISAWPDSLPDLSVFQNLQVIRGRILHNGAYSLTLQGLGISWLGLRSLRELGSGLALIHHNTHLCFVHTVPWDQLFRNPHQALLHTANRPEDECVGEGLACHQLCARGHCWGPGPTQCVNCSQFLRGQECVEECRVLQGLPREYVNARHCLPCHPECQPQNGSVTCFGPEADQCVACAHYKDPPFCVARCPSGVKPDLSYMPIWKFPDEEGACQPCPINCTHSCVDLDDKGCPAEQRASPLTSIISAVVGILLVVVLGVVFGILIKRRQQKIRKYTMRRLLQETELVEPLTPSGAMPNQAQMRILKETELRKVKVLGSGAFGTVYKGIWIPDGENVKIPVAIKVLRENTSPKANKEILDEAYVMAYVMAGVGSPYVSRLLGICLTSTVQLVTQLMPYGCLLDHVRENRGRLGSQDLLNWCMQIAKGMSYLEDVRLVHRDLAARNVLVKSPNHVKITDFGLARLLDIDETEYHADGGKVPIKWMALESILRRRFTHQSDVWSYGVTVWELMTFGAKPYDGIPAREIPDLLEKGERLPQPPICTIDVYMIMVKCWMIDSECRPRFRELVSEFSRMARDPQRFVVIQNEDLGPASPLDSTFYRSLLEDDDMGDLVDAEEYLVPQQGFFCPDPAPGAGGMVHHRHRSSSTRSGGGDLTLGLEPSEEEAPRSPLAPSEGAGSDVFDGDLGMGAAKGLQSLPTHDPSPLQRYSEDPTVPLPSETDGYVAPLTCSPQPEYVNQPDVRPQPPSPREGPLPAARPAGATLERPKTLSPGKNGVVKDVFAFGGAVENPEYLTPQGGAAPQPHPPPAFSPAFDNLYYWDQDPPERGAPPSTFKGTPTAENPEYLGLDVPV
The assay can be described thus: pHER2 (ERBB2) YVMA assay (AlphaScreen Surefire, HEK cells). Format: cell-based. The settings on record: HEK cells expressing HER2 YVMA, phosphorylation at Tyr1221/1222, 4 h. On the procedure: (§1) For the assay, HEK HER2 YVMA cells were seeded in MEM medium with 10% FBS. 4 hours prior to compound addition, HER2 YVMA expression was induced using 1 μg/ml Doxycycline. […] Subsequently, 60.000 cells/well in 60 μL were added. Cells were incubated with compounds for 4 h at 37° C. […] The mixture was incubated at a temperature of 20-25° C. with shaking (700 rpm) for 20 min. After centrifugation, 4 μL of the lysate were transferred to Proxiplates. […] Plates were shaken for 1 min (1400 rpm) and incubated for 2 h at a temperature of 20-25° C. in the dark.
The results of the assay are provided as IC50 values.
(In Alpha technology, singlet oxygen from a donor bead excites a nearby acceptor bead.)
For orientation: IC50 means the point on the concentration scale where inhibition reaches its midpoint. `C=CC(=O)N1CCN(c2ncc3ncnc(Nc4ccc(Oc5ccn6ncnc6c5)c(C)c4)c3n2)CC1` [Example I-1] showed an IC50 of 0.003 µM.
On the same count and under the same terms, under `C=CC(=O)N1CCN(c2ncc3ncnc(Nc4ccc(Oc5ccn6ncnc6c5)c(Cl)c4)c3n2)CC1` [Example I-2] stands 0.002 µM; under `C=CC(=O)N1CCN(c2ncc3ncnc(Nc4cc(Cl)c(Oc5ccn6ncnc6c5)c(Cl)c4)c3n2)CC1` [Example I-3], 0.01 µM; under `C=CC(=O)N1CCN(c2ncc3ncnc(Nc4cc(F)c(Oc5ccn6ncnc6c5)c(Cl)c4)c3n2)CC1` [Example I-4], 0.018 µM.
On the same count and under the same terms, under `C=CC(=O)N1CCN(c2ncc3ncnc(Nc4ccc(Oc5ccn6ncnc6c5)c(C)c4)c3n2)C[C@@H]1C` [Example I-5] stands 0.007 µM.

In a further assay the target is T2, EGFR wild type (WT) (Homo sapiens, UniProt P00533).
T2 construct: expressed in transfected cells; host or cells: human HEK cells (ATCC CRL-1573), retroviral transduction
T2 sequence (P00533 25-1210): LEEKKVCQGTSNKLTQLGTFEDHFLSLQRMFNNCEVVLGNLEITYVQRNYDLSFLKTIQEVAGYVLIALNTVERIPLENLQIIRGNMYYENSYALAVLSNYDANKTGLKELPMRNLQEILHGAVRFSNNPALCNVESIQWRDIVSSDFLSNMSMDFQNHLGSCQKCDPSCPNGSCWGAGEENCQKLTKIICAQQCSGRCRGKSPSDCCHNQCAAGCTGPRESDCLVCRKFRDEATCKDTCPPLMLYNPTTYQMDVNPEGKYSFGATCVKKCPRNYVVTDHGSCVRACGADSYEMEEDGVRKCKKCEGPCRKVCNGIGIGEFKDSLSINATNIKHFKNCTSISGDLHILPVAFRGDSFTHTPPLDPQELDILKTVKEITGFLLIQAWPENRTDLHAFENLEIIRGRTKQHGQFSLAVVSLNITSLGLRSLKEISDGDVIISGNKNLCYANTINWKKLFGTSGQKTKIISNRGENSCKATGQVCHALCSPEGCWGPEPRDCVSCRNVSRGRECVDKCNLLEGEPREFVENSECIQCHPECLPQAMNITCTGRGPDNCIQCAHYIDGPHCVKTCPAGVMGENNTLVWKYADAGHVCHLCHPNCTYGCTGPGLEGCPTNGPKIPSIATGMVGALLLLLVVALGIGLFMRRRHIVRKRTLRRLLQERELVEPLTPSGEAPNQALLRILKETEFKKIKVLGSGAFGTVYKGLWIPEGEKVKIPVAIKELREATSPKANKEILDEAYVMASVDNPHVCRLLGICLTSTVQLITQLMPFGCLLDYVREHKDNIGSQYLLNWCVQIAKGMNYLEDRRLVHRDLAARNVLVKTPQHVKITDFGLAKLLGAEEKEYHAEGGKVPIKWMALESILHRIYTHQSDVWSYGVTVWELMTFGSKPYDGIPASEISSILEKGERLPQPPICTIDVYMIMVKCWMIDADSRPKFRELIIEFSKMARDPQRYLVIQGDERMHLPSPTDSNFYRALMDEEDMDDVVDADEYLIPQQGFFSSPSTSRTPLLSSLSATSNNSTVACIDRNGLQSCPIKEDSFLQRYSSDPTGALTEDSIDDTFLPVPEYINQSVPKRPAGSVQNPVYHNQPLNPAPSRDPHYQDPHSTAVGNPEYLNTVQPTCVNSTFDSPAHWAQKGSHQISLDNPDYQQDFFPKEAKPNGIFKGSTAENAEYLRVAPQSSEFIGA
The assay can be described thus: pEGFR assay (AlphaScreen Surefire, HEK cells). The settings on record: HEK cells expressing EGFR WT, phosphorylation at Tyr1068, 4 h. Format: cell-based. As to the method: This assay quantifies the phosphorylation of EGFR at Tyr1068 and was used to measure the inhibitory effect of compounds on the transgenic EGFR wild type (WT) protein expressed in HEK cells.
as §1, with “Transduced cells were selected using puromycin. p-EGFR Tyr1068 was determined using the AlphaScreen Surefire pEGF Receptor (Tyr1068) Assay (PerkinElmer, TGRERS). For” for “For”, “EGFR WT” for “HER2 YVMA”, “FBS.” for “FBS. 4 hours prior to compound addition, HER2 YVMA expression was induced using 1 μg/ml Doxycycline.”, “C.—with” for “C. with”
This cellular phospho-EGFR (pEGFR) compound dose-response assay quantifies the phosphorylation of EGFR at Tyr1068 in HEK cells expressing EGFR WT. The results of the assay are provided as IC50 values.
`C=CC(=O)N1CCN(c2ncc3ncnc(Nc4ccc(Oc5ccn6ncnc6c5)c(C)c4)c3n2)CC1` [Example I-1] registered an IC50 of 0.153 µM.
The same measure, in the same setting: for `C=CC(=O)N1CCN(c2ncc3ncnc(Nc4ccc(Oc5ccn6ncnc6c5)c(Cl)c4)c3n2)CC1` [Example I-2] the value was 0.062 µM; for `C=CC(=O)N1CCN(c2ncc3ncnc(Nc4cc(Cl)c(Oc5ccn6ncnc6c5)c(Cl)c4)c3n2)CC1` [Example I-3], 0.371 µM; for `C=CC(=O)N1CCN(c2ncc3ncnc(Nc4cc(F)c(Oc5ccn6ncnc6c5)c(Cl)c4)c3n2)CC1` [Example I-4], 0.524 µM.
The same measure, in the same setting: under `C=CC(=O)N1CCN(c2ncc3ncnc(Nc4ccc(Oc5ccn6ncnc6c5)c(C)c4)c3n2)C[C@@H]1C` [Example I-5] stands 0.84 µM.

In the next assay the test system is NCI-H2170 (HER2 wild type) cells. Description: Tumor cell line proliferation assay, NCI-H2170 (HER2 wild type). Format: cell-based. The settings on record: Homo sapiens, 72 h, CellTiter-Glo, read-out: GI50 NCI H-2170 HER2 wt amp. On the procedure:
(§2) For proliferation assays, NCI-H2170 (HER2 wild type), NCI-H2170 HER2 YVMA and EGFR WT dependent A431 cells were used. NCI-H2170 HER2 YVMA or NCI-H2170 cells were seeded into 96-well plates at 750 cells/60 μL in growth media (RPMI ATCC+10% FBS, +Penicillin/Streptomycin). […] Compounds were added by using a HP D3000 Digital Dispenser one day after plating the cells. All treatments were performed in technical triplicates. Treated cells were incubated for 72 h at 37° C. with 5% CO2. CellTiter-Glo® Luminescent Cell Viability Assay (Promega) was performed and chemoluminescence was measured by using the multilabel Plate Reader VICTOR X4. The raw data were imported into and analyzed with the Boehringer Ingelheim proprietary software MegaLab (curve fitting based on the program PRISM, GraphPad Inc.).
(ATP-based viability assays read luminescence as a measure of living cells.)
The GI50 is the concentration giving 50% growth inhibition. With `C=CC(=O)N1CCN(c2ncc3ncnc(Nc4ccc(Oc5ccn6ncnc6c5)c(C)c4)c3n2)CC1` [Example I-1], the GI50 came to 0.006 µM.
Still for that read-out and setting: for `C=CC(=O)N1CCN(c2ncc3ncnc(Nc4ccc(Oc5ccn6ncnc6c5)c(Cl)c4)c3n2)CC1` [Example I-2] the value was 0.006 µM; for `C=CC(=O)N1CCN(c2ncc3ncnc(Nc4cc(Cl)c(Oc5ccn6ncnc6c5)c(Cl)c4)c3n2)CC1` [Example I-3], 0.012 µM.
Consider `C=CC(=O)N1CCN(c2ncc3ncnc(Nc4cc(F)c(Oc5ccn6ncnc6c5)c(Cl)c4)c3n2)CC1` [Example I-4], for which the GI50 was 0.012 µM.
On the same count and under the same terms, under `C=CC(=O)N1CCN(c2ncc3ncnc(Nc4ccc(Oc5ccn6ncnc6c5)c(C)c4)c3n2)C[C@@H]1C` [Example I-5] stands 0.012 µM.

The subject of a further assay is NCI-H2170 HER2 YVMA cells. The assay can be described thus: Tumor cell line proliferation assay, NCI-H2170 HER2 YVMA. It counts as cell-based. The settings on record: Homo sapiens, 72 h, CellTiter-Glo, read-out: GI50 NCI H-2170 HER2 YVMA.
Source text: Homology-directed genome engineering was employed to insert a 12 nucleotide sequence encoding YVMA into Exon 20 of the genomic HER2 locus in NCI-H2170 cells. […] The DNA template containing the HER2 exon 20 YVMA insertion variant was obtained from GenScript. PCR followed by Sanger sequencing was used to confirm the presence of the 12-nucleotide insertion in HER2 Exon 20 resulting in the YVMA amino acid duplication.
as §2
Regarding `C=CC(=O)N1CCN(c2ncc3ncnc(Nc4ccc(Oc5ccn6ncnc6c5)c(C)c4)c3n2)CC1` [Example I-1], the GI50 turned out to be 0.036 µM.
Consider `C=CC(=O)N1CCN(c2ncc3ncnc(Nc4ccc(Oc5ccn6ncnc6c5)c(Cl)c4)c3n2)CC1` [Example I-2], for which the GI50 was found to be 0.04 µM.
`C=CC(=O)N1CCN(c2ncc3ncnc(Nc4cc(Cl)c(Oc5ccn6ncnc6c5)c(Cl)c4)c3n2)CC1` [Example I-3]: the GI50 is 0.07 µM.
On the same count and under the same terms, under `C=CC(=O)N1CCN(c2ncc3ncnc(Nc4cc(F)c(Oc5ccn6ncnc6c5)c(Cl)c4)c3n2)CC1` [Example I-4] stands 0.085 µM.
On the same count and under the same terms, under `C=CC(=O)N1CCN(c2ncc3ncnc(Nc4ccc(Oc5ccn6ncnc6c5)c(C)c4)c3n2)C[C@@H]1C` [Example I-5] stands 0.108 µM.

Another assay concerns EGFR WT dependent A431 cells. The assay can be described thus: Tumor cell line proliferation assay, A431. The settings on record: Homo sapiens, A-431; 72 h, CellTiter-Glo; read-out: GI50 A431 EGFR wt amp. It counts as cell-based. On the procedure:
as §2
`C=CC(=O)N1CCN(c2ncc3ncnc(Nc4ccc(Oc5ccn6ncnc6c5)c(C)c4)c3n2)CC1` [Example I-1]: the GI50 turned out to be 2.18 µM.
Turning to `C=CC(=O)N1CCN(c2ncc3ncnc(Nc4ccc(Oc5ccn6ncnc6c5)c(Cl)c4)c3n2)CC1` [Example I-2], the concentration for 50% growth inhibition (GI50) came to 1.57 µM.
Regarding `C=CC(=O)N1CCN(c2ncc3ncnc(Nc4cc(Cl)c(Oc5ccn6ncnc6c5)c(Cl)c4)c3n2)CC1` [Example I-3], the GI50 came out at 3.83 µM.
On the same count and under the same terms, for `C=CC(=O)N1CCN(c2ncc3ncnc(Nc4cc(F)c(Oc5ccn6ncnc6c5)c(Cl)c4)c3n2)CC1` [Example I-4] the value was over 5 µM.
Still for that read-out and setting: for `C=CC(=O)N1CCN(c2ncc3ncnc(Nc4ccc(Oc5ccn6ncnc6c5)c(C)c4)c3n2)C[C@@H]1C` [Example I-5] the value was 3.64 µM.

The next assay concerns Ba/F3 cells HER2 WT. The assay can be described thus: Ba/F3 proliferation assay, HER2 WT. The settings on record: Mus musculus, BaF3; 72 h, CellTiter-Glo. It counts as cell-based. As to the method:
(§3) Plasmids containing HER2 mutants and EGFR WT were obtained from GeneScript. To generate EGFR/HER2-dependent Ba/F3 models, Ba/F3 cells were transduced with retroviruses containing vectors that harbor EGFR WT, HER2 WT or HER2 mutants (YVMA). Platinum-E cells (Cell Biolabs) were used for retrovirus packaging. Retrovirus was added to Ba/F3 cells. To ensure infection, 4 μg/mL polybrene was added and cells were spinfected. Infection efficiency was confirmed by measuring GFP-positive cells using a cell analyzer. Cells with an infection efficiency of 10% to 20% were further cultivated and puromycin selection with 1 μg/mL was initiated. As a control, parental Ba/F3 cells were used to assess the selection status. Selection was considered successful when parental Ba/F3 cells cultures died. To evaluate the transforming potential of HER2 mutations, the growth medium was no longer supplemented with IL-3. Ba/F3 cells harboring the empty vector were used as a control. A switch from IL-3 to EGF was performed for Ba/F3 cells with the EGFR WT known for its dependency on EGF ligand. Approximately ten days before conducting the experiments, puromycin was left out. For proliferation assays (data in table 12 and 14), Ba/F3 cells were seeded into 96-well plates at 5×10^3 cells/100 μL in growth media. Compounds were added by using a HP D3000 Digital Dispenser. All treatments were performed in technical triplicates. Treated cells were incubated for 72 h at 37° C. with 5% CO2. CellTiter-Glo® Luminescent Cell Viability Assay (Promega) was performed and chemoluminescence was measured by using the multilabel Plate Reader VICTOR X4. The raw data were imported into and analyzed with the Boehringer Ingelheim proprietary software MegaLab (curve fitting based on the program PRISM, GraphPad Inc.).
With `C=CC(=O)N1CCN(c2ncc3ncnc(Nc4ccc(Oc5ccn6ncnc6c5)c(C)c4)c3n2)CC1` [Example I-1], the GI50 worked out at 0.001 µM.
Still for that read-out and setting: for `C=CC(=O)N1CCN(c2ncc3ncnc(Nc4ccc(Oc5ccn6ncnc6c5)c(Cl)c4)c3n2)CC1` [Example I-2] the value was 0.001 µM; for `C=CC(=O)N1CCN(c2ncc3ncnc(Nc4cc(Cl)c(Oc5ccn6ncnc6c5)c(Cl)c4)c3n2)CC1` [Example I-3], 0.002 µM.
The same measure, in the same setting: under `C=CC(=O)N1CCN(c2ncc3ncnc(Nc4cc(F)c(Oc5ccn6ncnc6c5)c(Cl)c4)c3n2)CC1` [Example I-4] stands 0.002 µM.
On the same count and under the same terms, for `C=CC(=O)N1CCN(c2ncc3ncnc(Nc4ccc(Oc5ccn6ncnc6c5)c(C)c4)c3n2)C[C@@H]1C` [Example I-5] the value was 0.004 µM.

For another assay, the system named is Ba/F3 cells HER2 mutants (YVMA). Description: Ba/F3 proliferation assay, HER2 YVMA. It counts as cell-based. The settings on record: Mus musculus, BaF3; 72 h, CellTiter-Glo. As to the method: as §3
For the compound `C=CC(=O)N1CCN(c2ncc3ncnc(Nc4ccc(Oc5ccn6ncnc6c5)c(C)c4)c3n2)CC1` [Example I-1], the GI50 was 0.009 µM.
As to `C=CC(=O)N1CCN(c2ncc3ncnc(Nc4ccc(Oc5ccn6ncnc6c5)c(Cl)c4)c3n2)CC1` [Example I-2], it took 0.006 µM to inhibit growth by half (GI50).
On the same count and under the same terms, under `C=CC(=O)N1CCN(c2ncc3ncnc(Nc4cc(Cl)c(Oc5ccn6ncnc6c5)c(Cl)c4)c3n2)CC1` [Example I-3] stands 0.011 µM; under `C=CC(=O)N1CCN(c2ncc3ncnc(Nc4cc(F)c(Oc5ccn6ncnc6c5)c(Cl)c4)c3n2)CC1` [Example I-4], 0.02 µM.
As for `C=CC(=O)N1CCN(c2ncc3ncnc(Nc4ccc(Oc5ccn6ncnc6c5)c(C)c4)c3n2)C[C@@H]1C` [Example I-5], growth was halved (GI50) at 0.06 µM.

A further assay relates to Ba/F3 cells EGFR WT. Description: Ba/F3 proliferation assay, EGFR WT (EGF dependent). It counts as cell-based. The settings on record: Mus musculus, BaF3, EGF instead of IL-3, 72 h, CellTiter-Glo, read-out: GI50 BAF3 EGF dep. As to the method:
as §3
For the compound `C=CC(=O)N1CCN(c2ncc3ncnc(Nc4ccc(Oc5ccn6ncnc6c5)c(C)c4)c3n2)CC1` [Example I-1], the concentration for 50% growth inhibition (GI50) is 1.37 µM.
On the same count and under the same terms, for `C=CC(=O)N1CCN(c2ncc3ncnc(Nc4ccc(Oc5ccn6ncnc6c5)c(Cl)c4)c3n2)CC1` [Example I-2] the value was 0.67 µM; for `C=CC(=O)N1CCN(c2ncc3ncnc(Nc4cc(Cl)c(Oc5ccn6ncnc6c5)c(Cl)c4)c3n2)CC1` [Example I-3], 2.22 µM; for `C=CC(=O)N1CCN(c2ncc3ncnc(Nc4cc(F)c(Oc5ccn6ncnc6c5)c(Cl)c4)c3n2)CC1` [Example I-4], 1.01 µM.
Same read-out and setting: for `C=CC(=O)N1CCN(c2ncc3ncnc(Nc4ccc(Oc5ccn6ncnc6c5)c(C)c4)c3n2)C[C@@H]1C` [Example I-5] the value was over 5 µM.
